{
  "source": "paper PMC12951562",
  "about": "“SH2scan: Mapping SH2 Domain-Ligand Binding Selectivity for Inhibitors and Degraders” (Journal of Medicinal Chemistry, 2026)",
  "assay_in_all_cases": "biochemical",
  "assay_type_in_all_cases": "binding",
  "key": {"DAPP1": {"biological_target": "T1, DAPP1 (Homo sapiens, UniProt Q9UN19)", "T1 construct": "the DNA-tagged SH2 domain concentrations used in this study were <0.1 nM; made in house; host or cells: HEK293 (transient transfection; unpurified extract)", "T1 sequence (Q9UN19 35-129 limits assumed)": "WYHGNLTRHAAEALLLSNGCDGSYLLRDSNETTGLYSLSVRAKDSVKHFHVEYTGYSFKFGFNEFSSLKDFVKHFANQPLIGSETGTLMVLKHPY"}, "SOCS4": {"biological_target": "T2, SOCS4 (Homo sapiens, UniProt Q8WXH5)", "T2 construct": "made in house; host or cells: HEK293 (transient transfection), unpurified extract", "T2 sequence (Q8WXH5 1-440)": "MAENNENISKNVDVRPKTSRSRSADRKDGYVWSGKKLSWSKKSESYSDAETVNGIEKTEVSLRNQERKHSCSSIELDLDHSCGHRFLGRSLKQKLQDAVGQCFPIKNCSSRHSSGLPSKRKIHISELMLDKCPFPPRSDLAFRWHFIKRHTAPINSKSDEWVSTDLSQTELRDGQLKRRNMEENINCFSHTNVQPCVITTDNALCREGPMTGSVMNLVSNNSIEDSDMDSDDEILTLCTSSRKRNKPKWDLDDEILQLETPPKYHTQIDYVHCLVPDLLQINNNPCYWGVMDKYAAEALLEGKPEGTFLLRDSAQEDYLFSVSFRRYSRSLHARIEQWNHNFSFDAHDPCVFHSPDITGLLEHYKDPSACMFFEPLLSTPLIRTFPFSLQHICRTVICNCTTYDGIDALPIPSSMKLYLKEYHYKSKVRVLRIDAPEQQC"}, "STAP1": {"biological_target": "T3, STAP1 (Homo sapiens, UniProt Q9ULZ2)", "T3 construct": "made in house; host or cells: HEK293 (transient transfection), unpurified extract", "T3 sequence (Q9ULZ2 1-295)": "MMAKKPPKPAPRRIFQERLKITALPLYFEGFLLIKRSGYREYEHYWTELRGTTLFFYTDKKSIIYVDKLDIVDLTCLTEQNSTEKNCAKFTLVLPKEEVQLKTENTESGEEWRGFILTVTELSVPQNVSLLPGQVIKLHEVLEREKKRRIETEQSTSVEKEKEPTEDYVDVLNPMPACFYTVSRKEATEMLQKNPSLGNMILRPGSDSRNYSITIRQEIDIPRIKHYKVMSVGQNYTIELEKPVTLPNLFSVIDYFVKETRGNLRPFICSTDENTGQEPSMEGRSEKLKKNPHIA"}, "STAP2": {"biological_target": "T4, STAP2 (Homo sapiens, UniProt Q9UGK3)", "T4 construct": "made in house; host or cells: HEK293 (transient transfection), unpurified extract", "T4 sequence (Q9UGK3 1-403)": "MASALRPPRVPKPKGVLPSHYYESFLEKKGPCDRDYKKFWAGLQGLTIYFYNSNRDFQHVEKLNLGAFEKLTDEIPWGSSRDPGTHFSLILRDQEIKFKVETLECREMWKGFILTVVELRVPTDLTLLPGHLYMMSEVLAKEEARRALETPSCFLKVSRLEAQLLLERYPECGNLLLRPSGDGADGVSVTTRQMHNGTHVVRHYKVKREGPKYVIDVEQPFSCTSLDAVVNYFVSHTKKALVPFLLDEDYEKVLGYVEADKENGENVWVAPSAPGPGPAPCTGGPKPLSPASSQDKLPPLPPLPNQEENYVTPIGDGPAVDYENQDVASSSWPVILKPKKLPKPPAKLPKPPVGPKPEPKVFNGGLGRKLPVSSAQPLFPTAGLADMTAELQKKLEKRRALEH"}, "PTPN6(SH2dom.C-term.)": {"biological_target": "T5, PTPN6(SH2dom.C-term.) (Homo sapiens, UniProt P29350)", "T5 construct": "SH2dom.C-term. denotes SH2 domain closest to C-terminus of protein; made in house; host or cells: HEK293 (transient transfection, unpurified extract)", "T5 sequence (P29350 110-213 limits assumed)": "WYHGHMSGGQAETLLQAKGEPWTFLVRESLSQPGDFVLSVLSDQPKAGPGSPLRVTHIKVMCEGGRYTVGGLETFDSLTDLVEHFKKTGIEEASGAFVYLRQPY"}, "RASA1(SH2dom.C-term.)": {"biological_target": "T6, RASA1(SH2dom.C-term.) (Homo sapiens, UniProt P20936)", "T6 construct": "SH2dom.C-term. denotes SH2 domain closest to C-terminus of protein; made in house; host or cells: HEK293 (transient transfection, unpurified extract)", "T6 sequence (P20936 351-441 limits assumed)": "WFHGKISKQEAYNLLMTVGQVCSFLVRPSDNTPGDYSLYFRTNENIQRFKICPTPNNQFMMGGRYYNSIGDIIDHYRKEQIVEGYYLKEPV"}, "APS (SH2B2)": {"biological_target": "T7, APS (SH2B2) (Homo sapiens, UniProt O14492)", "T7 construct": "the DNA-tagged SH2 domain concentrations used in this study were <0.1 nM; made in house; host or cells: HEK293 (transient transfection; unpurified extract)", "T7 sequence (O14492 417-515 limits assumed)": "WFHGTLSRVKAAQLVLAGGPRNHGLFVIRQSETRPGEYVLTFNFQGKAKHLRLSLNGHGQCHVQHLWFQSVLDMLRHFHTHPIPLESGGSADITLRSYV"}, "BLNK": {"biological_target": "T8, BLNK (Homo sapiens, UniProt Q8WV28)", "T8 construct": "the DNA-tagged SH2 domain concentrations used in this study were <0.1 nM; made in house; host or cells: HEK293 (transient transfection; unpurified extract)", "T8 sequence (Q8WV28 346-453 limits assumed)": "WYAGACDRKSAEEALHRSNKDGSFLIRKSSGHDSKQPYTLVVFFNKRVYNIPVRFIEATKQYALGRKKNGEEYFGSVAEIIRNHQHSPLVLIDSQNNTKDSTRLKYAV"}, "BRK": {"biological_target": "T9, BRK (Homo sapiens, UniProt Q13882)", "T9 construct": "the DNA-tagged SH2 domain concentrations used in this study were <0.1 nM; made in house; host or cells: HEK293 (transient transfection; unpurified extract)", "T9 sequence (Q13882 78-170 limits assumed)": "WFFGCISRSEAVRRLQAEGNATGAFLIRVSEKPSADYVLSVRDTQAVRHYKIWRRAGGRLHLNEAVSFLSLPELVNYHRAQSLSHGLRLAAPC"}, "GRB10": {"biological_target": "T10, GRB10 (Homo sapiens, UniProt Q13322)", "T10 construct": "the DNA-tagged SH2 domain concentrations used in this study were <0.1 nM; made in house; host or cells: HEK293 (transient transfection; unpurified extract)", "T10 sequence (Q13322 493-574 limits assumed)": "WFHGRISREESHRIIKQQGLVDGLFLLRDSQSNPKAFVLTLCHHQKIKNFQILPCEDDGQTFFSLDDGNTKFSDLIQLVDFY"}, "ITK": {"biological_target": "T11, ITK (Homo sapiens, UniProt Q08881)", "T11 construct": "the DNA-tagged SH2 domain concentrations used in this study were <0.1 nM; made in house; host or cells: HEK293 (transient transfection, unpurified extract)", "T11 sequence (Q08881 239-338 limits assumed)": "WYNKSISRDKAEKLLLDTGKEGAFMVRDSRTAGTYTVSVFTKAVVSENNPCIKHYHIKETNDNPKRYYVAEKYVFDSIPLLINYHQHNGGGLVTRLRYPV"}, "MIST": {"biological_target": "T12, MIST (Homo sapiens, UniProt Q7Z7G1)", "T12 construct": "the DNA-tagged SH2 domain concentrations used in this study were <0.1 nM; made in house; host or cells: HEK293 (transient transfection, unpurified extract)", "T12 sequence (Q7Z7G1 309-419 limits assumed)": "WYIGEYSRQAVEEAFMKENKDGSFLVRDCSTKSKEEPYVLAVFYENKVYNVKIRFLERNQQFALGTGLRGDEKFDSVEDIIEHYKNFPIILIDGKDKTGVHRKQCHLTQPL"}, "SLP76": {"biological_target": "T13, SLP76 (Homo sapiens, UniProt Q13094)", "T13 construct": "made in house; host or cells: HEK293 (transient transfection), unpurified extract", "T13 sequence (Q13094 1-533)": "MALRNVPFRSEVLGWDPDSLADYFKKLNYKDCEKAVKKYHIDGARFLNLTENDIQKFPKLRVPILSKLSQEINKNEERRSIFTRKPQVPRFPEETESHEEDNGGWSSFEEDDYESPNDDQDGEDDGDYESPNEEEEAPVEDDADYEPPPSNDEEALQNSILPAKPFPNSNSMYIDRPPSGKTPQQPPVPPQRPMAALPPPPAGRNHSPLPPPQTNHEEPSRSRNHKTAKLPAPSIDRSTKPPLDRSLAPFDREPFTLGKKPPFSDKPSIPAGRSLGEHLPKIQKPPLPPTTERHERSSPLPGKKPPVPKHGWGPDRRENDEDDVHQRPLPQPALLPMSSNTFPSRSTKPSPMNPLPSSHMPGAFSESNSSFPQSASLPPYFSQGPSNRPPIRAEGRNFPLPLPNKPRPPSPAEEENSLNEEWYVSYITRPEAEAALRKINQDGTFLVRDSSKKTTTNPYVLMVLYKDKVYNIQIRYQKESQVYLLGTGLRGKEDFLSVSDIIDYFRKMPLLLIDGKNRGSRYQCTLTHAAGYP"}},
  "note": "Non-standard residues stand in square brackets, D forms with d. Residues, ends and D or L forms follow the SMILES beside them. pY = N[C@@H](Cc1ccc(OP(=O)(O)O)cc1)C(=O)O",
  "data": [
    {"smiles": "CC(=O)N[C@@H](CC(C)C)C(=O)N[C@@H](CC(C)C)C(=O)N1CCC[C@H]1C(=O)N[C@@H](CC(C)C)C(=O)N[C@@H](CC(=O)O)C(=O)N[C@@H](CCCCN)C(=O)N[C@@H](CC(=O)O)C(=O)N[C@@H](Cc1ccc(OP(=O)(O)O)cc1)C(=O)N[C@@H](Cc1ccc(OP(=O)(O)O)cc1)C(=O)N[C@H](C(=O)N[C@H](C(=O)N[C@@H](CCCNC(=N)N)C(=O)N[C@@H](CCC(=O)O)C(=O)N1CCC[C@H]1C(=O)NCC(=O)N[C@@H](CCC(N)=O)C(N)=O)C(C)C)C(C)C", "values": [
      {"measurement": "Kd", "setting": "DAPP1", "result": "41.3 ± 5.96", "unit": "µM"},
      {"measurement": "Kd", "setting": "SOCS4", "result": "0.00191 ± 0.0005", "unit": "µM"}
    ]},
    {"smiles": "CC[C@H](C)[C@H](NC(=O)[C@H](CC(C)C)NC(=O)[C@@H](NC(=O)[C@H](CC(N)=O)NC(=O)[C@H](CCC(=O)O)NC(=O)[C@H](Cc1ccc(OP(=O)(O)O)cc1)NC(=O)[C@H](CO)NC(=O)[C@H](CC(N)=O)NC(=O)[C@H](C)NC(C)=O)C(C)C)C(=O)N[C@@H](C)C(=O)N[C@@H](CCCCN)C(N)=O", "note": "(Ac-ANS[pY]ENVLIAK-NH2)", "values": [
      {"measurement": "Kd", "setting": "STAP1", "result": "2.78 ± 0.615", "unit": "µM"},
      {"measurement": "Kd", "setting": "STAP2", "result": "38.9 ± 7.93", "unit": "µM"}
    ]},
    {"smiles": "CC[C@H](C)[C@H](NC(=O)[C@H](CCC(=O)O)NC(=O)[C@H](CCC(N)=O)NC(=O)[C@H](CCC(=O)O)NC(=O)[C@@H](NC(=O)[C@H](C)NC(C)=O)[C@@H](C)O)C(=O)N[C@H](C(=O)N[C@@H](Cc1ccc(OP(=O)(O)O)cc1)C(=O)N[C@@H](C)C(=O)N[C@@H](CCC(=O)O)C(=O)N[C@@H](CC(C)C)C(=O)N[C@@H](CC(N)=O)C(=O)N[C@@H](CC(C)C)C(=O)N[C@@H](CCC(N)=O)C(=O)N[C@@H](CCCCN)C(N)=O)[C@@H](C)O", "note": "(Ac-ATEQEIT[pY]AELNLQK-NH2)", "values": [
      {"measurement": "Kd", "setting": "PTPN6(SH2dom.C-term.)", "result": "1.49 ± 0.666", "unit": "µM"}
    ]},
    {"smiles": "CSCC[C@H](NC(=O)[C@@H]1CCCN1C(=O)[C@H](CCC(=O)O)NC(=O)[C@H](C)NC(=O)[C@H](Cc1ccc(OP(=O)(O)O)cc1)NC(=O)[C@H](CC(=O)O)NC(=O)[C@H](CO)NC(=O)[C@@H]1CCCN1C(=O)[C@H](CC(=O)O)NC(=O)[C@H](Cc1ccccc1)NC(=O)CNC(C)=O)C(=O)N[C@@H](CC(=O)O)C(=O)N[C@@H](C)C(=O)N[C@H](C(=O)N[C@H](C(N)=O)C(C)C)C(C)C", "note": "(Ac-GFDPSD[pY]AEPMDAVV-NH2)", "values": [
      {"measurement": "Kd", "setting": "RASA1(SH2dom.C-term.)", "result": "0.00411 ± 0.00048", "unit": "µM"}
    ]},
    {"smiles": "CC(=O)N[C@@H](CC(=O)O)C(=O)N[C@@H](CC(=O)O)C(=O)N[C@@H](CC(=O)O)C(=O)N[C@@H](Cc1ccc(OP(=O)(O)O)cc1)C(=O)N[C@@H](CC(=O)O)C(=O)N[C@@H](CC(=O)O)C(=O)N[C@H](C(=O)N[C@@H](CC(=O)O)C(N)=O)C(C)C", "note": "[Ac-DDDpYDDVD-NH2] (Ac-DDD[pY]DDVD-NH2)", "values": [
      {"measurement": "Kd", "setting": "APS (SH2B2)", "result": "8.78 ± 0.971", "unit": "µM"},
      {"measurement": "Kd", "setting": "BLNK", "result": "0.137 ± 0.0224", "unit": "µM"},
      {"measurement": "Kd", "setting": "BRK", "result": "0.226 ± 0.2", "unit": "µM"},
      {"measurement": "Kd", "setting": "GRB10", "result": "1.26 ± 1.16", "unit": "µM"},
      {"measurement": "Kd", "setting": "ITK", "result": "1.45 ± 0.153", "unit": "µM"},
      {"measurement": "Kd", "setting": "MIST", "result": "0.0329 ± 0.0067", "unit": "µM"},
      {"measurement": "Kd", "setting": "SLP76", "result": "1.41 ± 0.432", "unit": "µM"}
    ]}
  ]
}
